# In patent US8455648B2, “1-(7-(hexahydropyrrolo [3,4-c] pyrrol-2 (1H)-yl) quinolin-4-yl) -3- (pyrazin-2-yl) urea derivatives and related compounds as glycogen synthase kinase 3 (GSK-3)” (Abbott GmbH & Co. KG, priority 2008, dated 2013):
# Molecular target: T1, human Glycogen Synthase Kinase-3 beta (hGSK-3β) (Homo sapiens, UniProt P49841)
# T1 construct: purchased Upstate cell signaling solutions
# Assay: Biochemical hGSK-3beta assay (33P-ATP phosphorylation of biotinylated peptide substrate)
# Conditions: 10 μM ATP, 1 μM substrate, 30 minutes at room temperature; read-out: GSK-3β IC50
# Procedure: Methods—Biochemical hGSK-3Beta Assay
# Compounds were tested for their ability to inhibit human Glycogen Synthase Kinase-3 beta (hGSK-3β) to phosphorylate biotin-[…](pS)EDEEE. Compounds were incubated with 0.5 μCi 33P-ATP, 10 μM ATP, 0.0125U hGSK-3β (Upstate cell signaling solutions) and 1 μM substrate (biotin-[…](pS)EDEEE) in 50 mM HEPES, 10 mM MgCl2, […], 1 mM DTT, 0.0075% Triton, 2% DMSO (total volume 50 μL) for 30 minutes at room temperature. The incubation was stopped by addition of an equal volume of 100 mM EDTA, 4M NaCl. 80 μL of this mixture was added to streptavidin-coated Flashplates (PerkinElmer). Following a wash step, 33P incorporation was quantified on a MicroBeta microplate liquid scintillation counter (PerkinElmer). IC50s were determined by fitting a sigmoidal dose-response curve to the counts obtained at the different concentrations in GraphPad Prism.
# T1 sequence (P49841 whole entry): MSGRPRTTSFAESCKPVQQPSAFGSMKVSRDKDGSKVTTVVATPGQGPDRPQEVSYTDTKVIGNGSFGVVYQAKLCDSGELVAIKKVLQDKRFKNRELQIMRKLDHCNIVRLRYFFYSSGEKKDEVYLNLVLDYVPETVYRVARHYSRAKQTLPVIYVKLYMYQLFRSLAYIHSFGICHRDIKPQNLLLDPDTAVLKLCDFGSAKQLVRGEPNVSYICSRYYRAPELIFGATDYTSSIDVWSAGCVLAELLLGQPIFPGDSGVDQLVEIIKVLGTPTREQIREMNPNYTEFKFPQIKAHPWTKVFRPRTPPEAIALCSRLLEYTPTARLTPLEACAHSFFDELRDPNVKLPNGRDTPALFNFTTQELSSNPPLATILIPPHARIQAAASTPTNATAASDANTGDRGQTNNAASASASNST
row,SMILES,IC50 [µM]
1,"CC(C)(C)OC(=O)N1C[C@@H]2CN(c3ccc4c(NC(=O)Nc5cnccn5)ccnc4c3)C[C@@H]2C1 [Example 1, (3aR,6aS)-Tert-butyl 5-(4-(3-pyrazin-2-ylureido)quinolin-7-yl)-hexahydropyrrolo[3,4-c]pyrrole-2(1H)-carboxylate]",0.1 to 10
2,"COc1ccc2c(NC(=O)Nc3cncc(N4C[C@H]5CN(C(=O)OC(C)(C)C)C[C@H]5C4)n3)ccnc2c1 [Example 3, (3aR,6aS)-tert-butyl 5-(6-(3-(7-methoxyquinolin-4-yl)ureido)pyrazin-2-yl)-hexahydropyrrolo[3,4-c]pyrrole-2(1H)-carboxylate]",0.1 to 10
3,"O=C(Nc1cnccn1)Nc1ccnc2cc(N3C[C@@H]4C[C@H]3CN4)ccc12 [Example 7, 1-(7-((1S,4S)-2,5-Diazabicyclo[2.2.1]heptan-2-yl)quinolin-4-yl)-3-(pyrazin-2-yl)urea]",0.1 to 10
4,"COc1ccc2c(NC(=O)Nc3cccc(N4CC5COCC5C4)n3)ccnc2c1 (stereo not shown) [Example 9, 1-(6-(Dihydro-1H-furo[3,4-c]pyrrol-5(3H,6H,6aH)-yl)pyridin-2-yl)-3-(7-methoxyquinolin-4-yl)urea]",< 0.1
5,"COc1ccc2c(NC(=O)Nc3cccc(N4C[C@@H]5C[C@H]4CO5)n3)ccnc2c1 [Example 10, 1-(6-((1S,4S)-2-Oxa-5-azabicyclo[2.2.1]heptan-5-yl)pyridin-2-yl)-3-(7-methoxyquinolin-4-yl)urea]",< 0.1
6,"CC(C)(C)OC(=O)N1C[C@@H]2C[C@H]1CN2c1ccc2nccc(NC(=O)Nc3cnccn3)c2c1 [Example 11, (1S,4S)-Tert-butyl 5-(4-(3-pyrazin-2-ylureido)quinolin-6-yl)-2,5-diazabicyclo[2.2.1]heptane-2-carboxylate]",0.1 to 10
7,"O=C(Nc1cnccn1)Nc1ccnc2cc(N3CC4CCNC4C3)ccc12 (stereo not shown) [Example 12, 1-(7-(Hexahydropyrrolo[3,4-b]pyrrol-5(1H)-yl)quinolin-4-yl)-3-(pyrazin-2-yl)urea]",0.1 to 10
